Results taken from the kinase profiling compilation of Christmann-Franck et al. (2016).
Each block holds one compound with its values, some of them ahead of it.

Tests used:
Test in all cases: Free Choice Kinase Assay Projects, Flashplate
AKT1 (human) = AKT1 (human) (UniProt P31749); conditions: compound 10.0 µM; ATP 3 µM
AURKA (human) = AURKA (human) (UniProt O14965); conditions: compound 10.0 µM; ATP 10 µM
AURKB (human) = AURKB (human) (UniProt Q96GD4); conditions: compound 10.0 µM; ATP 10 µM
AXL (human) = AXL (human) (UniProt P30530); conditions: compound 10.0 µM; ATP 0.3 µM
CDK2 CCNA2 (human) = CDK2 CCNA2 (human) (UniProt P24941+P20248); conditions: compound 10.0 µM; ATP 0.3 µM
CDK4 CCND1 (human) = CDK4 CCND1 (human) (UniProt P11802+P24385); conditions: compound 10.0 µM; ATP 3 µM
CDK4 CCND1 (human), sequence (P11802 whole entry, looked up): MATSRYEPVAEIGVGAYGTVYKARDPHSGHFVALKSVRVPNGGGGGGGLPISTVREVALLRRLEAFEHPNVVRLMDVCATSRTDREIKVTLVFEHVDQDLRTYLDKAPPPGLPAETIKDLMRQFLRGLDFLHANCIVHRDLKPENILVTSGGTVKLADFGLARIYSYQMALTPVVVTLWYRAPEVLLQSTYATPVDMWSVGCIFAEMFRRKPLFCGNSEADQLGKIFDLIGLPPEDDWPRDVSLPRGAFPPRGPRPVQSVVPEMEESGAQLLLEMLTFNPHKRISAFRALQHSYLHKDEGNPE
CDK4 CCND1 (human), sequence (P24385 whole entry, looked up): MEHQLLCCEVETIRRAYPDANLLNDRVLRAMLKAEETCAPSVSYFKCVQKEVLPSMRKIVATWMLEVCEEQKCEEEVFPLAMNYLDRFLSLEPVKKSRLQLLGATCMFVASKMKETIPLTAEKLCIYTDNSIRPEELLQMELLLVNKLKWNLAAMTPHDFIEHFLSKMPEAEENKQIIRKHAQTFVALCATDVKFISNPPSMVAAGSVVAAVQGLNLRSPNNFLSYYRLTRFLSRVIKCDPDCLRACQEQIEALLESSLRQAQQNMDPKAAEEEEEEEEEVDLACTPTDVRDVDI

CSNK2A1 (human) = CSNK2A1 (human) (UniProt P68400); conditions: compound 10.0 µM; ATP 0.1 µM
EGFR (human) = EGFR (human) (UniProt P00533); conditions: compound 10.0 µM; ATP 0.3 µM
EPHB4 (human) = EPHB4 (human) (UniProt P54760); conditions: compound 10.0 µM; ATP 1 µM
EPHB4 (human), sequence (P54760 whole entry, looked up): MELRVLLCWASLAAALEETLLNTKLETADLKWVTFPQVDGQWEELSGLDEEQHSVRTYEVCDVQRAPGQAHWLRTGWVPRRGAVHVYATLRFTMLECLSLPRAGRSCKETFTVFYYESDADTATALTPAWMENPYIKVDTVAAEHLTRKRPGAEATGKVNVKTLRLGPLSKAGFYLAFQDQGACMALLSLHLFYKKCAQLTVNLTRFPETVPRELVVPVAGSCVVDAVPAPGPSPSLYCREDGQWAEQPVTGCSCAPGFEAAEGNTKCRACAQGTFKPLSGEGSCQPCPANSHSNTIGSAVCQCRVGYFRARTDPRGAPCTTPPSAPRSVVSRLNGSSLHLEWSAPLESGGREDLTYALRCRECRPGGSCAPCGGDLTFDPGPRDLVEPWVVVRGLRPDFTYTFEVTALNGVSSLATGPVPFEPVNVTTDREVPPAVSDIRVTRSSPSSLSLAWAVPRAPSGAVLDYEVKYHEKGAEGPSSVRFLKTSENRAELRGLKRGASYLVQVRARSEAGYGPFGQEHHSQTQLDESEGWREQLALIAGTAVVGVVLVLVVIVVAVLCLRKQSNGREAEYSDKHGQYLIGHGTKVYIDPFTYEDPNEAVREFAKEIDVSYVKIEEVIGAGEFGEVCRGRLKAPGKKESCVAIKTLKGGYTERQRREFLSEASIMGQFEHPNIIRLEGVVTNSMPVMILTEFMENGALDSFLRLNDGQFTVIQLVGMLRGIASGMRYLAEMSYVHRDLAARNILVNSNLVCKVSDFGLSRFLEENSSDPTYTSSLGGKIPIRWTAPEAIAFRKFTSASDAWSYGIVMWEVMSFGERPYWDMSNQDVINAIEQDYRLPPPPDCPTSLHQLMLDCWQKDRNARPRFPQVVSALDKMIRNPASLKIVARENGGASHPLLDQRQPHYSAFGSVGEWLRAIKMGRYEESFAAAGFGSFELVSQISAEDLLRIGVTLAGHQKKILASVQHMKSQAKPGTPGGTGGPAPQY

ERBB2 (human) = ERBB2 (human) (UniProt P04626); conditions: compound 10.0 µM; ATP 1 µM
ERBB2 (human), sequence (P04626 whole entry, looked up): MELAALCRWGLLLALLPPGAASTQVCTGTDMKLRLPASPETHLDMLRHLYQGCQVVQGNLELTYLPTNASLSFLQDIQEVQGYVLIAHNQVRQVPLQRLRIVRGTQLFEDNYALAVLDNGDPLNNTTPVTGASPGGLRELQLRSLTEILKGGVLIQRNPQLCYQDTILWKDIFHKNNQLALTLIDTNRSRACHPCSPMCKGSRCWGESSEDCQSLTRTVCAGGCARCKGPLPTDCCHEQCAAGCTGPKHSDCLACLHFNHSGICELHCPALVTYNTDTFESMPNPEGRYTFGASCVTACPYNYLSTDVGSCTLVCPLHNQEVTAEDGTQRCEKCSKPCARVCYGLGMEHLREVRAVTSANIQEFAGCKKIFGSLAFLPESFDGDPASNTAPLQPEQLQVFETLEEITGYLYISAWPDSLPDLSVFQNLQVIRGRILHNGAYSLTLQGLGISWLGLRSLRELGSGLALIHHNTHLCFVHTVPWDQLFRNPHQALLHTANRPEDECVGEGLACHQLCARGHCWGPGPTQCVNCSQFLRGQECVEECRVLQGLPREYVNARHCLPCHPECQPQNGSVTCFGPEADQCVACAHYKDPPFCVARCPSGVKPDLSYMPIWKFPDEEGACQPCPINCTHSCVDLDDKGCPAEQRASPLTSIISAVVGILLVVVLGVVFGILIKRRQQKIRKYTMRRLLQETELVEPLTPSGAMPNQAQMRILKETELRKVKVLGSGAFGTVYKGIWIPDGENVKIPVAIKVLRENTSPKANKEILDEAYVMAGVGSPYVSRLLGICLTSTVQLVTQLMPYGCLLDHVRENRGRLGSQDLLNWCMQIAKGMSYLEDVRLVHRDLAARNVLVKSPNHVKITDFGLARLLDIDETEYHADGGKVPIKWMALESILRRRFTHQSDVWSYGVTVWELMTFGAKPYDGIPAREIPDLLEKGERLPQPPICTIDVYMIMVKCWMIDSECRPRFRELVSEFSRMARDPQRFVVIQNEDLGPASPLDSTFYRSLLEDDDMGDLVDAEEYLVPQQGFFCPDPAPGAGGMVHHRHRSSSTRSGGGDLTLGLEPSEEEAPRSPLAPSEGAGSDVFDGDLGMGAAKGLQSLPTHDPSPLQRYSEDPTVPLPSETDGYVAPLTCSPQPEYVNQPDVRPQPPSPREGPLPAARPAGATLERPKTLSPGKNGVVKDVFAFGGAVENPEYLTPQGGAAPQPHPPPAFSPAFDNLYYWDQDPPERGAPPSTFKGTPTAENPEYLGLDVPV

IGF1R (human) = IGF1R (human) (UniProt P08069); conditions: compound 10.0 µM; ATP 1 µM
KDR (human) = KDR (human) (UniProt P35968); conditions: compound 10.0 µM; ATP 1 µM
MAP3K8 (human) = MAP3K8 (human) (UniProt P41279); conditions: compound 10.0 µM; ATP 3 µM
MAPK10 (human) = MAPK10 (human) (UniProt P53779); conditions: compound 10.0 µM; ATP 0.3 µM
MAPK14 (human) = MAPK14 (human) (UniProt Q16539); conditions: compound 10.0 µM; ATP 1 µM
MET (human) = MET (human) (UniProt P08581); conditions: compound 10.0 µM; ATP 0.3 µM
NUAK1 (human) = NUAK1 (human) (UniProt O60285); conditions: compound 10.0 µM; ATP 1 µM
PDGFRB (human) = PDGFRB (human) (UniProt P09619); conditions: compound 10.0 µM; ATP 0.3 µM
PLK1 (human) = PLK1 (human) (UniProt P53350); conditions: compound 10.0 µM; ATP 1 µM
PLK4 (human) = PLK4 (human) (UniProt O00444); conditions: compound 10.0 µM; ATP 0.3 µM
PTK2 (human) = PTK2 (human) (UniProt Q05397); conditions: compound 10.0 µM; ATP 1 µM
PTK2 (human), sequence (Q05397 whole entry, looked up): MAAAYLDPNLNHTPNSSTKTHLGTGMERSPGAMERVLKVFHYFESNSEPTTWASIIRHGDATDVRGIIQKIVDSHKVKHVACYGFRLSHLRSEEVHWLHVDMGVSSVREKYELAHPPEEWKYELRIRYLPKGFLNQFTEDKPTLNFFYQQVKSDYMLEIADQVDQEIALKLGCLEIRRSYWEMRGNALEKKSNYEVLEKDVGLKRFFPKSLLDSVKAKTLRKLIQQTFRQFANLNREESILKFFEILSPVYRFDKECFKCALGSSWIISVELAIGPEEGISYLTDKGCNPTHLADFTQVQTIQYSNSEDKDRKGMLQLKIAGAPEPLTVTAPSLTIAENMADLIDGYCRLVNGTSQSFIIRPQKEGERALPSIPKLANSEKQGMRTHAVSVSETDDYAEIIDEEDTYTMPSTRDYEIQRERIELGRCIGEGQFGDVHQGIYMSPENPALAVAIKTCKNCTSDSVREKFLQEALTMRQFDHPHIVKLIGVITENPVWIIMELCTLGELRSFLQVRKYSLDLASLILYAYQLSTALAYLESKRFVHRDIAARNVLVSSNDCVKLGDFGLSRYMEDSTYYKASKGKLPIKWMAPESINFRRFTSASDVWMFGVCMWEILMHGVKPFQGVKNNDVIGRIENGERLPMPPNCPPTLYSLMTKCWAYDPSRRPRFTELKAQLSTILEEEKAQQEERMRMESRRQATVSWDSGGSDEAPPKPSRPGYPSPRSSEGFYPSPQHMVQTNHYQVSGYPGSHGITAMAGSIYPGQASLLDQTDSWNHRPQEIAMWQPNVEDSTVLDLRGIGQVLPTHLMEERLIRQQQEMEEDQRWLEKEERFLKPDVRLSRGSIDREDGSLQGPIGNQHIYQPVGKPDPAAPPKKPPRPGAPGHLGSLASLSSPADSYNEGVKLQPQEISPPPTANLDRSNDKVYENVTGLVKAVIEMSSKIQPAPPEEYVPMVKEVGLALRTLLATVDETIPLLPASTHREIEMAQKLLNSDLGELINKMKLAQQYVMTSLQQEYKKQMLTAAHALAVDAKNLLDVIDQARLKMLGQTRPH

SRC (human) = SRC (human) (UniProt P12931); conditions: compound 10.0 µM; ATP 0.3 µM
TEK (human) = TEK (human) (UniProt Q02763); conditions: compound 10.0 µM; ATP 1 µM
TEK (human), sequence (Q02763 whole entry, looked up): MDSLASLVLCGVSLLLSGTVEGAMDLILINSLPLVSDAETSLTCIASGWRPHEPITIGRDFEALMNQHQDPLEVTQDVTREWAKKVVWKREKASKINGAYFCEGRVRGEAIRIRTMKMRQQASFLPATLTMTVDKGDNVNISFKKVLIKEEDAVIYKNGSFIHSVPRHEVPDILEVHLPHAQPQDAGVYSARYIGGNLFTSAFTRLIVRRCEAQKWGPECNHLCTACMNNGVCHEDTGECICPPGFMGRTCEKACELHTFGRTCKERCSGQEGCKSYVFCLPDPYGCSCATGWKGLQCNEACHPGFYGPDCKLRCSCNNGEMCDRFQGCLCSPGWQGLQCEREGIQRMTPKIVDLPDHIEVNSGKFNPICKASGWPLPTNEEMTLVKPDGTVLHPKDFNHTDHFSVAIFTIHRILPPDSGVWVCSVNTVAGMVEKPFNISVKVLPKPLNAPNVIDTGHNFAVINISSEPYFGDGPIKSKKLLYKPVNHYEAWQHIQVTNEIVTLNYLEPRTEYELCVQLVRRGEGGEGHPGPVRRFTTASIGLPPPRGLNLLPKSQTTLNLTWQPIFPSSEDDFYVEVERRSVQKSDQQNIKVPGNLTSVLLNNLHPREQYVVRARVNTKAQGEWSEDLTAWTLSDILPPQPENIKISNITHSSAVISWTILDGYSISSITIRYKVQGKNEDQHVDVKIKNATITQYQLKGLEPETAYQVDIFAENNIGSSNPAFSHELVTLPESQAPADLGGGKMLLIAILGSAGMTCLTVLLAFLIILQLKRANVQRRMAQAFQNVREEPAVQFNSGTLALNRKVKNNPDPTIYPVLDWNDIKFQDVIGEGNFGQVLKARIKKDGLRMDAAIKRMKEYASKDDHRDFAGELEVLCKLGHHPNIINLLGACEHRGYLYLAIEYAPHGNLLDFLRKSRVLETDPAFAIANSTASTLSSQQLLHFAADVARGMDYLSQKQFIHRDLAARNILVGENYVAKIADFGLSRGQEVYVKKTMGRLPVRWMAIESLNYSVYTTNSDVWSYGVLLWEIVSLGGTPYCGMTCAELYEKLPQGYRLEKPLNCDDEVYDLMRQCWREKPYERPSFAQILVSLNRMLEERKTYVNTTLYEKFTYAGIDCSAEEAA

Structure (SMILES): COc1ccc(C(=O)Nc2cc(-c3nc(SC)n(C)c3-c3ccc(F)cc3)ccn2)cc1
- residual activity (AKT1 (human)): 113%
- residual activity (AURKA (human)): 97%
- residual activity (AURKB (human)): 87%
- residual activity (AXL (human)): 54%
- residual activity (CDK2 CCNA2 (human)): 37%
- residual activity (CDK4 CCND1 (human)): 76%
- residual activity (CSNK2A1 (human)): 72%
- residual activity (EGFR (human)): 7%
- residual activity (EPHB4 (human)): 33%
- residual activity (ERBB2 (human)): 17%
- residual activity (IGF1R (human)): 23%
- residual activity (KDR (human)): 8%
- residual activity (MAP3K8 (human)): 87%
- residual activity (MAPK10 (human)): 18%
- residual activity (MAPK14 (human)): 3%
- residual activity (MET (human)): 52%
- residual activity (NUAK1 (human)): 95%
- residual activity (PDGFRB (human)): 48%
- residual activity (PLK1 (human)): 81%
- residual activity (PLK4 (human)): 20%
- residual activity (PTK2 (human)): 131%
- residual activity (SRC (human)): 9%
- residual activity (TEK (human)): 21%

Structure (SMILES): Fc1ccc(-c2[nH]c(CCc3ccccc3)nc2-c2ccncc2)cc1
- residual activity (AKT1 (human)): 76%
- residual activity (AURKA (human)): 44%
- residual activity (AURKB (human)): 50%
- residual activity (AXL (human)): 54%
- residual activity (CDK2 CCNA2 (human)): 45%
- residual activity (CDK4 CCND1 (human)): 99%
- residual activity (CSNK2A1 (human)): 81%
- residual activity (EGFR (human)): 1%
- residual activity (EPHB4 (human)): 13%
- residual activity (ERBB2 (human)): 2%
- residual activity (IGF1R (human)): 18%
- residual activity (KDR (human)): 4%
- residual activity (MAP3K8 (human)): 69%
- residual activity (MAPK10 (human)): 14%
- residual activity (MAPK14 (human)): 0%
- residual activity (MET (human)): 35%
- residual activity (NUAK1 (human)): 89%
- residual activity (PDGFRB (human)): 20%
- residual activity (PLK1 (human)): 95%
- residual activity (PLK4 (human)): 26%
- residual activity (PTK2 (human)): 99%
- residual activity (SRC (human)): 1%
- residual activity (TEK (human)): 9%

Structure (SMILES): CSc1nc(-c2ccnc(N(C(=O)C3CC3)C(=O)C3CC3)c2)c(-c2ccc(F)cc2)n1C
- residual activity (AKT1 (human)): 122%
- residual activity (AURKA (human)): 56%
- residual activity (AURKB (human)): 57%
- residual activity (AXL (human)): 38%
- residual activity (CDK2 CCNA2 (human)): 211%
- residual activity (CDK4 CCND1 (human)): 112%
- residual activity (CSNK2A1 (human)): 90%
- residual activity (EGFR (human)): 26%
- residual activity (EPHB4 (human)): 21%
- residual activity (ERBB2 (human)): 26%
- residual activity (IGF1R (human)): 36%
- residual activity (KDR (human)): 14%
- residual activity (MAP3K8 (human)): 106%
- residual activity (MAPK10 (human)): 18%
- residual activity (MAPK14 (human)): 4%
- residual activity (MET (human)): 99%
- residual activity (NUAK1 (human)): 106%
- residual activity (PDGFRB (human)): 50%
- residual activity (PLK1 (human)): 118%
- residual activity (PLK4 (human)): 54%
- residual activity (PTK2 (human)): 79%
- residual activity (SRC (human)): 19%
- residual activity (TEK (human)): 24%

Structure (SMILES): N#CCSc1nc(-c2ccncc2)c(-c2ccc(F)cc2)[nH]1
- residual activity (AKT1 (human)): 110%
- residual activity (AURKA (human)): 53%
- residual activity (AURKB (human)): 66%
- residual activity (AXL (human)): 80%
- residual activity (CDK2 CCNA2 (human)): 90%
- residual activity (CDK4 CCND1 (human)): 102%
- residual activity (CSNK2A1 (human)): 93%
- residual activity (EGFR (human)): 2%
- residual activity (EPHB4 (human)): 18%
- residual activity (ERBB2 (human)): 2%
- residual activity (IGF1R (human)): 68%
- residual activity (KDR (human)): 3%
- residual activity (MAP3K8 (human)): 101%
- residual activity (MAPK10 (human)): 12%
- residual activity (MAPK14 (human)): 1%
- residual activity (MET (human)): 45%
- residual activity (NUAK1 (human)): 106%
- residual activity (PDGFRB (human)): 16%
- residual activity (PLK1 (human)): 86%
- residual activity (PLK4 (human)): 57%
- residual activity (PTK2 (human)): 71%
- residual activity (SRC (human)): 8%
- residual activity (TEK (human)): 10%

Structure (SMILES): Fc1ccc(-c2[nH]c(SCC3CCCCC3)nc2-c2ccncc2)cc1
- residual activity (AKT1 (human)): 56%
- residual activity (AURKA (human)): 46%
- residual activity (AURKB (human)): 80%
- residual activity (AXL (human)): 63%
- residual activity (CDK2 CCNA2 (human)): 74%
- residual activity (CDK4 CCND1 (human)): 44%
- residual activity (CSNK2A1 (human)): 86%
- residual activity (EGFR (human)): 24%
- residual activity (EPHB4 (human)): 38%
- residual activity (ERBB2 (human)): 46%
- residual activity (IGF1R (human)): 22%
- residual activity (KDR (human)): 48%
- residual activity (MAP3K8 (human)): 73%
- residual activity (MAPK10 (human)): 63%
- residual activity (MAPK14 (human)): 23%
- residual activity (MET (human)): 73%
- residual activity (NUAK1 (human)): 91%
- residual activity (PDGFRB (human)): 81%
- residual activity (PLK1 (human)): 83%
- residual activity (PLK4 (human)): 34%
- residual activity (PTK2 (human)): 106%
- residual activity (SRC (human)): 38%
- residual activity (TEK (human)): 36%

The next lines start with the values.

- residual activity (AKT1 (human)): 98%
- residual activity (AURKA (human)): 88%
- residual activity (AURKB (human)): 88%
- residual activity (AXL (human)): 71%
- residual activity (CDK2 CCNA2 (human)): 54%
- residual activity (CDK4 CCND1 (human)): 99%
- residual activity (CSNK2A1 (human)): 87%
- residual activity (EGFR (human)): 31%
- residual activity (EPHB4 (human)): 55%
- residual activity (ERBB2 (human)): 30%
- residual activity (IGF1R (human)): 49%
- residual activity (KDR (human)): 52%
- residual activity (MAP3K8 (human)): 85%
- residual activity (MAPK10 (human)): 56%
- residual activity (MAPK14 (human)): 10%
- residual activity (MET (human)): 81%
- residual activity (NUAK1 (human)): 89%
- residual activity (PDGFRB (human)): 80%
- residual activity (PLK1 (human)): 92%
- residual activity (PLK4 (human)): 74%
- residual activity (PTK2 (human)): 99%
- residual activity (SRC (human)): 33%
- residual activity (TEK (human)): 65%
Structure (SMILES): Fc1ccc(-c2[nH]c(SCCCc3ccccc3)nc2-c2ccncc2)cc1

- residual activity (AKT1 (human)): 147%
- residual activity (AURKA (human)): 78%
- residual activity (AURKB (human)): 63%
- residual activity (AXL (human)): 85%
- residual activity (CDK2 CCNA2 (human)): 64%
- residual activity (CDK4 CCND1 (human)): 87%
- residual activity (CSNK2A1 (human)): 71%
- residual activity (EGFR (human)): 49%
- residual activity (EPHB4 (human)): 56%
- residual activity (ERBB2 (human)): 31%
- residual activity (IGF1R (human)): 33%
- residual activity (KDR (human)): 51%
- residual activity (MAP3K8 (human)): 79%
- residual activity (MAPK10 (human)): 64%
- residual activity (MAPK14 (human)): 11%
- residual activity (MET (human)): 54%
- residual activity (NUAK1 (human)): 94%
- residual activity (PDGFRB (human)): 54%
- residual activity (PLK1 (human)): 94%
- residual activity (PLK4 (human)): 33%
- residual activity (PTK2 (human)): 122%
- residual activity (SRC (human)): 30%
- residual activity (TEK (human)): 21%
Structure (SMILES): CSc1ccc(CSc2nc(-c3ccncc3)c(-c3ccc(Br)cc3)[nH]2)cc1

- residual activity (AKT1 (human)): 137%
- residual activity (AURKA (human)): 74%
- residual activity (AURKB (human)): 74%
- residual activity (AXL (human)): 96%
- residual activity (CDK2 CCNA2 (human)): 54%
- residual activity (CDK4 CCND1 (human)): 79%
- residual activity (CSNK2A1 (human)): 90%
- residual activity (EGFR (human)): 11%
- residual activity (EPHB4 (human)): 44%
- residual activity (ERBB2 (human)): 11%
- residual activity (IGF1R (human)): 49%
- residual activity (KDR (human)): 42%
- residual activity (MAP3K8 (human)): 91%
- residual activity (MAPK10 (human)): 46%
- residual activity (MAPK14 (human)): 6%
- residual activity (MET (human)): 71%
- residual activity (NUAK1 (human)): 108%
- residual activity (PDGFRB (human)): 64%
- residual activity (PLK1 (human)): 104%
- residual activity (PLK4 (human)): 38%
- residual activity (PTK2 (human)): 128%
- residual activity (SRC (human)): 32%
- residual activity (TEK (human)): 32%
Structure (SMILES): Oc1ccccc1CSc1nc(-c2ccncc2)c(-c2ccc(F)cc2)[nH]1

- residual activity (AKT1 (human)): 60%
- residual activity (AURKA (human)): 54%
- residual activity (AURKB (human)): 57%
- residual activity (AXL (human)): 59%
- residual activity (CDK2 CCNA2 (human)): 20%
- residual activity (CDK4 CCND1 (human)): 44%
- residual activity (CSNK2A1 (human)): 77%
- residual activity (EGFR (human)): 8%
- residual activity (EPHB4 (human)): 21%
- residual activity (ERBB2 (human)): 9%
- residual activity (IGF1R (human)): 17%
- residual activity (KDR (human)): 24%
- residual activity (MAP3K8 (human)): 46%
- residual activity (MAPK10 (human)): 17%
- residual activity (MAPK14 (human)): 3%
- residual activity (MET (human)): 40%
- residual activity (NUAK1 (human)): 53%
- residual activity (PDGFRB (human)): 39%
- residual activity (PLK1 (human)): 46%
- residual activity (PLK4 (human)): 9%
- residual activity (PTK2 (human)): 124%
- residual activity (SRC (human)): 8%
- residual activity (TEK (human)): 11%
Structure (SMILES): Fc1ccc(-c2[nH]c(SCc3cccc4ccccc34)nc2-c2ccncc2)cc1
